This is an account of results in patent US6756376B1, “Tricyclic azaindolizine derivatives having an sPLA2-inhibitory activities” (Shionogi & Co., Ltd., priority 1999, dated 2004).

pIC50: −log10 of the molar value.

In general, pIC50 refers to −log10 of the IC50, conventionally taken in molar units. High values mean a low IC50, low ones a high IC50. Broadly, the melting point is the temperature, or range, at which the solid turns liquid.

One series deals with human type I sPLA2 (Homo sapiens, UniProt P04054). The series can be described thus: Inhibition test of human secretory phospholipase A2, chromogenic assay, Type I enzyme. The format is biochemical. As to conditions: human type I enzyme 90 ng/well, absorbance change 30 min, OD 405 nm. From the text: (§1) In order to identify and evaluate an inhibitor of recombinant human secretory phospholipase A2, the following chromogenic assay is utilized. The assay herein has been applied for high volume screening wherein 96 well microtiterplate is used. A general explanation for such assay is described in “Analysis of Human Synovial Fluid Phospholipase A2 on Short Chain Phosphatidylcholine-Mixed Micelles: Development of a Spectrophotometric Assay Suitable for a Micortiterplate Reader” (Analytical Biochemistry, 204, pp 190-197, 1992 by Laure. J. Reynolds. Lori L. Hughes and Edward A. Dennis: the disclosure of which is incorporated herein for reference.
Type I enzyme: sPLA2 solution (330 ng/μl) (described in A. Kanda et. al., Biochimica et Biophysica Acta. 1171 (1992) 1-10) is dissolved in the assay (enzyme solution 27 μl is diluted with 1973 μl of the reaction buffer).
(§2) 1) 0.106 ml of the substrate solution is put in a centrifugal tube, and nitrogen gas is jetted to remove the solvent. 0.54 ml of Triton-X 100 is added thereto, the mixture is stirred, thereafter it is sonified in a bath type sonification to dissolve. To the resulting product are added 17.8 ml of the reaction buffer and 0.46 ml of DTNB, and 0.18 ml each of the admixture is poured to wells of the 96 well microtiterplate.
(§3) 2) 10 μl of a test compound (or solvent blank) are added in accordance with alignment of plates which has been previously set.
(§4) 3) Incubation is effected at 40° C. for 15 minutes.
(§5) 4) 90 ng/well in case of human type I enzyme, 50 ng/well in case of human type II enzyme, 40 μl/well in case of human type V enzyme, 15 μl/well in case of human type X enzyme were reacted.
(§6) 5) Changes in absorbancy for 30 minutes for humane type I, type II, and type X enzyme and for 45 min for human type V enzyme, are measured by a plate reader, and inhibition activity was calculated (OD: 405 nm).
(§7) 6) IC50 was determined by plotting log concentration with respect to inhibition values within 10% to 90% inhibiting range.

In another series the target is T1, human type X sPLA2 (Homo sapiens, UniProt O15496).
T1 construct: made in house; unpurified culture supernatant used
T1 sequence (O15496 43-165): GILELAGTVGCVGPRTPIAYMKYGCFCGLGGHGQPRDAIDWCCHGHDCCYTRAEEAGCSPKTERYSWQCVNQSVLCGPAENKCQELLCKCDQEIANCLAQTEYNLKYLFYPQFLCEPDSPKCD
The series can be described thus: Inhibition test of human secretory phospholipase A2, chromogenic assay, Type X enzyme. The format is biochemical. The settings on record: human type X enzyme (CHO supernatant) 15 μl/well, absorbance change 30 min, OD 405 nm. From the text:
(§8) In order to identify and evaluate an inhibitor of recombinant human secretory phospholipase A2, the following chromogenic assay is utilized. The assay herein has been applied for high volume screening wherein 96 well microtiterplate is used. A general explanation for such assay is described in “Analysis of Human Synovial Fluid Phospholipase A2 on Short Chain Phosphatidylcholine-Mixed Micelles: Development of a Spectrophotometric Assay Suitable for a Micortiterplate Reader” (Analytical Biochemistry, 204, pp 190-197, 1992 by Laure. J. Reynolds. Lori L. Hughes and Edward A. Dennis: the disclosure of which is incorporated herein for reference. Type V and Type X enzymes: cDNA sequences encoding human type V and Type X sPLA2 (Chen et., al., J. Biol. Chem., 1994. 269, 2365-2368 and Cupillard et., al., J. Biol. Chem., 1997, 272, 15745-15762) were inserted into downstream of promoter of pSVL SV40 Late Promoter Expression Vector (Amersham Pharmacia Biotech K. K.), mammalian cell expression vector, forwardly. The recombinant expression vectors were transfected into CHO host cells by LipofectAMINE regent (Gibco BRL.) according to the attached manual and the cells expressed each of human type V and type X sPLA2 stably. After each expressing cells were cultured in σ-MEM medium including 10% fetal serum albumin for 3 days, the cells supernatant were collected and measured enzymatic activity. 1) 0.106 ml of the substrate solution is put in a centrifugal tube, and nitrogen gas is jetted to remove the solvent. 0.54 ml of Triton-X 100 is added thereto, the mixture is stirred, thereafter it is sonified in a bath type sonification to dissolve. To the resulting product are added 17.8 ml of the reaction buffer and 0.46 ml of DTNB, and 0.18 ml each of the admixture is poured to wells of the 96 well microtiterplate. 2) 10 μl of a test compound (or solvent blank) are added in accordance with alignment of plates which has been previously set. 3) Incubation is effected at 40° C. for 15 minutes. 4) 90 ng/well in case of human type I enzyme, 50 ng/well in case of human type II enzyme, 40 μl/well in case of human type V enzyme, 15 μl/well in case of human type X enzyme were reacted. 5) Changes in absorbancy for 30 minutes for humane type I, type II, and type X enzyme and for 45 min for human type V enzyme, are measured by a plate reader, and inhibition activity was calculated (OD: 405 nm). 6) IC50 was determined by plotting log concentration with respect to inhibition values within 10% to 90% inhibiting range.

The next series has as its target T2, human type II sPLA2 (Homo sapiens, UniProt P14555).
T2 sequence (P14555 21-144): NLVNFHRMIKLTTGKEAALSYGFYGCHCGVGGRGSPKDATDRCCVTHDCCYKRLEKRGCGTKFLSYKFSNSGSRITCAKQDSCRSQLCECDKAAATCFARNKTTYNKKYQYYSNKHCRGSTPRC
The series can be described thus: Inhibition test of human secretory phospholipase A2, chromogenic assay, Type II enzyme. The format is biochemical. As to conditions: human type II enzyme 50 ng/well, absorbance change 30 min, OD 405 nm.
From the text: as §1
Type II enzyme: 1 mg of sPLA2 is dissolved in 1 ml of an enzyme buffer. Thereafter, the solution is maintained at 4° C. In the assay, 5 >l of the solution is diluted with 1995 μl of the reaction buffer to be used.
as §2, §3, §4, §5, §6, §7

The target of a further series is T3, human type V sPLA2 (Homo sapiens, UniProt P39877).
T3 construct: made in house; unpurified culture supernatant used
T3 sequence (P39877 21-138): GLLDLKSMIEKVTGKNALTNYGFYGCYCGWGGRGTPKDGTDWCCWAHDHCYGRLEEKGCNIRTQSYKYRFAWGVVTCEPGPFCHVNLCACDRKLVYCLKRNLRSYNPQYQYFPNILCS
Briefly: Inhibition test of human secretory phospholipase A2, chromogenic assay, Type V enzyme. The format is biochemical. The settings on record: human type V enzyme (CHO supernatant) 40 μl/well, absorbance change 45 min, OD 405 nm.
From the text: as §8

human type I sPLA2, sequence (P04054 23-148): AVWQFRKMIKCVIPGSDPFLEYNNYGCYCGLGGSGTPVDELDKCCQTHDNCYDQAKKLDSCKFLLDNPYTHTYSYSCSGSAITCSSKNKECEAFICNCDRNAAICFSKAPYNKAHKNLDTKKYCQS

Turning to `Cc1cc(OC(C)C(=O)O)c2c3c(c(Cc4ccccc4)n2n1)CCC=C3C(N)=O` (stereo not drawn) [Compound I-2], the pIC50 against human type I sPLA2 is 7.10; at human type X sPLA2, 8.40; against human type II sPLA2 it was 7.82; against human type V sPLA2, 8.52.
Regarding `Cc1cn2c(Cc3ccccc3)c3c(c2c(OC(C)C(=O)O)n1)C(C(N)=O)=CCC3` (stereo not drawn) [Compound I-13], the pIC50 against human type I sPLA2 is 7.03; on human type X sPLA2, 8.15; on human type II sPLA2 it was 7.72; against human type V sPLA2, 8.40.
In the same order, the values of `NC(=O)C1=CCCc2c1c1c(OCC(=O)O)nccn1c2Cc1ccccc1` [Compound I-12] are 7.07, 8.40, 8.10 and 8.70.
The corresponding values for `COc1cccc(Cc2c3c(c4c(OCC(=O)O)cc(-c5ccccc5)nn24)C(C(N)=O)=CCC3)c1` [Compound I-10] are 7.31, 8.70, 8.22 and 9.70.
In the same order, the values of `Cc1cn2c(Cc3ccccc3)c3c(c2c(OCC(=O)O)n1)C(C(N)=O)=CCC3` [Compound I-11] are 6.63, 8.22, 8.05 and 9.00.
Turning to `NC(=O)C1=CCCc2c1c1c(OCC(=O)O)cc(-c3ccccc3)nn1c2Cc1ccccc1` [Compound I-9], the pIC50 against human type I sPLA2 is 7.29; against human type X sPLA2 it was 9.00; against human type II sPLA2, 8.10; on human type V sPLA2 it was 9.70.
As to `COc1cccc(Cc2c3c(c4c(OC(C)C(=O)O)cc(C)nn24)C(C(N)=O)=CCC3)c1` (stereo not drawn) [Compound I-8], the pIC50 on human type I sPLA2 is 7.12; at human type X sPLA2, 7.92; against human type II sPLA2 it was 7.64; on human type V sPLA2, 8.70.
The corresponding values for `Cc1ccc(Cc2c3c(c4c(OCC(=O)O)cc(C)nn24)C(C(N)=O)=CCC3)cc1` [Compound I-3] are 6.34, 8.00, 7.96 and 8.70.
In the same order, the values of `Cc1ccc(Cc2c3c(c4c(OC(C)C(=O)O)cc(C)nn24)C(C(N)=O)=CCC3)cc1` (stereo not drawn) [Compound I-4] are 6.86, 8.15, 7.68 and 8.70.
For `Cc1cc(OCC(=O)O)c2c3c(c(Cc4ccc(Cl)cc4)n2n1)CCC=C3C(N)=O` [Compound I-5], the pIC50 at human type I sPLA2 is 6.83; against human type X sPLA2, 8.22; against human type II sPLA2, 8.10; at human type V sPLA2, 9.00.
In the same order, the values of `Cc1cc(OC(C)C(=O)O)c2c3c(c(Cc4ccc(Cl)cc4)n2n1)CCC=C3C(N)=O` (stereo not drawn) [Compound I-6] are 7.07, 8.30, 7.77 and 9.00.
In the same order, the values of `Cc1cn2c(CC3CCCCC3)c3c(c2c(OC(C)C(=O)O)n1)C(C(N)=O)=CCC3` (stereo not drawn) [Compound I-14] are 7.24, 9.00, 7.85 and 9.00.
The corresponding values for `COc1cccc(Cc2c3c(c4c(OCC(=O)O)cc(C)nn24)C(C(N)=O)=CCC3)c1` [Compound I-7] are 6.67, 7.80, 8.00 and 8.70.
For the compound `Cc1cc(OCC(=O)O)c2c3c(c(Cc4ccccc4)n2n1)CCC=C3C(N)=O` [Compound I-1], the melting point was 256 to 258 °C (dec.). At human type I sPLA2, the negative logarithm of the IC50 (pIC50) was 6.77. On human type X sPLA2, this compound had a pIC50 of 8.40. The same compound showed a pIC50 against human type II sPLA2 of 8.15. On human type V sPLA2, this compound had a pIC50 of 8.70.
